Experimental data reported in BindingDB's records for doi:10.1021/acschembio.5b01018 (Stony Brook University, 2016).

Target: T1, Tyrosine-protein kinase ABL1 [229-512] (Homo sapiens, UniProt P00519)
T1 construct: 229-512
T1 sequence (P00519 whole entry): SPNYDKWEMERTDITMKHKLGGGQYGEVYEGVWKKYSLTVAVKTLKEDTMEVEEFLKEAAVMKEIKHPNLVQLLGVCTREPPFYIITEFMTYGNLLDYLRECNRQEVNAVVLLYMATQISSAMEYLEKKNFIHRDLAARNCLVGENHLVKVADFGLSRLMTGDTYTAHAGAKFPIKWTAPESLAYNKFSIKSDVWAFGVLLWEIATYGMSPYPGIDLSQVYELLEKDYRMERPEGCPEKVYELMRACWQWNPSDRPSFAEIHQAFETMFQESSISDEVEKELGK
Assay: Kinome-Wide Inhibitor Profiling for Phosphorylated c-Abl
Description: Inhibitor selectivity profiles were obtained through Luceome Biotechnologies (Tuscon, AZ). Each inhibitor was screened at 0.5 μM against phosphorylated c-Abl.

Row | SMILES | Kd [nM]
1 | Cc1nc(Nc2ncc(C(=O)Nc3cccc(NC(=O)c4cccc(C(F)(F)F)c4)c3)s2)cc(N2CCN(CCO)CC2)n1 [DAS-DFGO-I] | 1.8
2 | Cc1nc(Nc2ncc(C(=O)Nc3cc(NC(=O)c4cccc(C(F)(F)F)c4)ccc3C)s2)cc(N2CCN(CCO)CC2)n1 [DAS-DFGO-II] | 2
